For 27 molecules, IC50 results are on record in US9884868B2, “TGF-beta inhibitors” (Rigel Pharmaceuticals, Inc., priority 2015, dated 2018).

This test has as its target HIS-TGF-βR1 T204D (Homo sapiens (Human), UniProt P36897, T204D). The test is described as follows: HTRF probe displacement assay with HIS-TGF-βR1 T204D. Conditions: read-out: TGFbr1 IC50; HTRF probe displacement, 1 nM HIS-TGF-βR1 T204D, 1 hour at room temperature.

HIS-TGF-βR1 T204D, sequence (P36897 34-503 T204D): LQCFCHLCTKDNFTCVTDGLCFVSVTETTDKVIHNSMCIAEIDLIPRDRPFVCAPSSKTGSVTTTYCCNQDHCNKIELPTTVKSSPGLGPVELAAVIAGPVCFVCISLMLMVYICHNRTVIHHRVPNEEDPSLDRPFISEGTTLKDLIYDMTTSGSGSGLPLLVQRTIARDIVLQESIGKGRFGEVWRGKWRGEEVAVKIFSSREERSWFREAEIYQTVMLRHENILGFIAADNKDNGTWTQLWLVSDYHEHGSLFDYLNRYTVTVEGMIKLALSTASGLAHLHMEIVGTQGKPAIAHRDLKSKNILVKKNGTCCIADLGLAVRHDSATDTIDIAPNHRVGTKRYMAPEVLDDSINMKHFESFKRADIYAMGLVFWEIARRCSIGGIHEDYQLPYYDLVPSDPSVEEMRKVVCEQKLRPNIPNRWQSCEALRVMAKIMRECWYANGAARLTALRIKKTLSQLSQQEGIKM

On to `CC(C)(O)Cn1cnc(-c2ccc(F)cc2)c1-c1ccc2ncc(C#N)n2c1` [90′, 6-(4-(4-fluorophenyl)-1-(2-hydroxy-2-methylpropyl)-1H-imidazol-5-yl)imidazo[1,2-a]pyridine-3-carbonitrile], for which the IC50 was found to be 107 nM.

As for `CCOCCn1cnc(-c2ccc(F)cc2)c1-c1ccc2ncc(C#N)n2c1` [91′, 6-(1-(2-ethoxyethyl)-4-(4-fluorophenyl)-1H-imidazol-5-yl)imidazo[1,2-a]pyridine-3-carbonitrile], the IC50 amounted to 18.8 nM.

Take `N#Cc1cnc2ccc(-c3c(-c4ccc(F)cc4)ncn3C[C@H](O)CO)cn12` [92′, (S)-6-(1-(2,3-dihydroxypropyl)-4-(4-fluorophenyl)-1H-imidazol-5-yl)imidazo[1,2-a]pyridine-3-carbonitrile]: the IC50 was 266 nM.

Turning to `CCn1cnc(-c2ccc(F)c(Cl)c2)c1-c1ccc2ncc(C#N)n2c1` [94′, 6-(4-(3-chloro-4-fluorophenyl)-1-ethyl-1H-imidazol-5-yl)imidazo[1,2-a]pyridine-3-carbonitrile], the IC50 stood at 13.1 nM.

As for `N#Cc1cnc2ccc(-c3c(-c4ccc(F)c(Cl)c4)ncn3CC3CC3)cn12` [96′, 6-(4-(3-chloro-4-fluorophenyl)-1-(cyclopropylmethyl)-1H-imidazol-5-yl)imidazo[1,2-a]pyridine-3-carbonitrile], the IC50 amounted to 94.4 nM.

In the case of `N#Cc1cnc2ccc(-c3c(-c4ccc(F)c(Cl)c4)ncn3C3COC3)cn12` [97′, 6-(4-(3-chloro-4-fluorophenyl)-1-(oxetan-3-yl)-1H-imidazol-5-yl)imidazo[1,2-a]pyridine-3-carbonitrile], the IC50 was found to be 140 nM.

For `Cn1cnc(-c2ccc(F)c(Cl)c2)c1-c1ccc2ncc(C#N)n2c1` [98′, 6-(4-(3-chloro-4-fluorophenyl)-1-methyl-1H-imidazol-5-yl)imidazo[1,2-a]pyridine-3-carbonitrile], the IC50 stood at 17.3 nM.

Consider `N#Cc1cnc2ccc(-c3c(-c4ccc(F)c(Cl)c4)ncn3CCO)cn12` [100′, 6-(4-(3-chloro-4-fluorophenyl)-1-(2-hydroxyethyl)-1H-imidazol-5-yl)imidazo[1,2-a]pyridine-3-carbonitrile], for which the IC50 came out at 11.6 nM.

Consider `N#Cc1cnc2ccc(-c3c(-c4ccc(F)c(Cl)c4)ncn3CCCF)cn12` [101′, 6-(4-(3-chloro-4-fluorophenyl)-1-(3-fluoropropyl)-1H-imidazol-5-yl)imidazo[1,2-a]pyridine-3-carbonitrile], for which the IC50 came to 23.2 nM.

Regarding `NC(=O)c1cnc2ccc(-c3c(-c4ccc(F)cc4)ncn3C3CC(F)(F)C3)nn12` [106′, 6-(1-(3,3-difluorocyclobutyl)-4-(4-fluorophenyl)-1H-imidazol-5-yl)imidazo[1,2-b]pyridazine-3-carboxamide], the IC50 is 6.1 nM.

Consider `NC(=O)c1cnc2ccc(-c3c(-c4ccc(F)cc4)ncn3C3CC3)nn12` [109′, 6-(1-cyclopropyl-4-(4-fluorophenyl)-1H-imidazol-5-yl)imidazo[1,2-b]pyridazine-3-carboxamide], for which the IC50 was determined as 2.5 nM.

In the case of `NC(=O)c1cnc2ccc(-c3c(-c4ccc(F)cc4)ncn3CCF)nn12` [111′, 6-(1-(2-fluoroethyl)-4-(4-fluorophenyl)-1H-imidazol-5-yl)imidazo[1,2-b]pyridazine-3-carboxamide], the IC50 is 0.8 nM.

Regarding `CCn1cnc(-c2ccc(F)cc2)c1-c1ccc2ncc(C(N)=O)n2n1` [112′, 6-(1-ethyl-4-(4-fluorophenyl)-1H-imidazol-5-yl)imidazo[1,2-b]pyridazine-3-carboxamide], the IC50 is 0.7 nM.

As to `NC(=O)c1cnc2ccc(-c3c(-c4ccc(F)c(Cl)c4)ncn3CC(F)F)nn12` [113′, 6-(4-(3-chloro-4-fluorophenyl)-1-(2,2-difluoroethyl)-1H-imidazol-5-yl)imidazo[1,2-b]pyridazine-3-carboxamide], the IC50 is 0.9 nM.

Regarding `NC(=O)c1cnc2ccc(-c3c(-c4ccc(F)c(Cl)c4)ncn3CCF)nn12` [114′, 6-(4-(3-chloro-4-fluorophenyl)-1-(2-fluoroethyl)-1H-imidazol-5-yl)imidazo[1,2-b]pyridazine-3-carboxamide], the IC50 came out at 1.3 nM.

Turning to `CC(C)n1cnc(-c2ccc(F)c(Cl)c2)c1-c1ccc2ncc(C(N)=O)n2n1` [116′, 6-(4-(3-chloro-4-fluorophenyl)-1-isopropyl-1H-imidazol-5-yl)imidazo[1,2-b]pyridazine-3-carboxamide], the IC50 came out at 0.9 nM.

As for `CCn1cnc(-c2ccc(F)c(Cl)c2)c1-c1ccc2ncc(C(N)=O)n2n1` [117′, 6-(4-(3-chloro-4-fluorophenyl)-1-ethyl-1H-imidazol-5-yl)imidazo[1,2-b]pyridazine-3-carboxamide], the IC50 came to 0.6 nM.

With `CCn1cnc(-c2ccc(F)c(Cl)c2)c1-c1ccc2ncc(C(N)=O)n2c1` [119′, 6-(4-(3-chloro-4-fluorophenyl)-1-ethyl-1H-imidazol-5-yl)imidazo[1,2-a]pyridine-3-carboxamide], the IC50 is 0.4 nM.

Consider `CC(C)OCCn1cnc(-c2ccc(F)cc2)c1-c1ccc2ncc(C(N)=O)n2n1` [124′, 6-(4-(4-fluorophenyl)-1-(2-isopropoxyethyl)-1H-imidazol-5-yl)imidazo[1,2-b]pyridazine-3-carboxamide], for which the IC50 stood at 2.5 nM.

For `CC[C@@H](CO)n1cnc(-c2ccc(F)cc2)c1-c1ccc2ncc(C(N)=O)n2n1` [125′, (S)-6-(4-(4-fluorophenyl)-1-(1-hydroxybutan-2-yl)-1H-imidazol-5-yl)imidazo[1,2-b]pyridazine-3-carboxamide], the IC50 was determined as 2.6 nM.

As for `NC(=O)c1cnc2ccc(-c3c(-c4ccc(F)cc4)ncn3C3COC3)nn12` [126′, 6-(4-(4-fluorophenyl)-1-(oxetan-3-yl)-1H-imidazol-5-yl)imidazo[1,2-b]pyridazine-3-carboxamide], the IC50 came to 7.4 nM.

For the molecule `CC[C@@H](CF)n1cnc(-c2ccc(F)cc2)c1-c1ccc2ncc(C(N)=O)n2n1` [128′, (S)-6-(1-(1-fluorobutan-2-yl)-4-(4-fluorophenyl)-1H-imidazol-5-yl)imidazo[1,2-b]pyridazine-3-carboxamide], the IC50 was determined as 1.5 nM.

As to `NC(=O)c1cnc2ccc(-c3c(-c4ccc(F)cc4)ncn3C(CO)CO)nn12` [129′, 6-(1-(1,3-dihydroxypropan-2-yl)-4-(4-fluorophenyl)-1H-imidazol-5-yl)imidazo[1,2-b]pyridazine-3-carboxamide], the IC50 is 5.1 nM.

Take `NC(=O)c1cnc2ccc(-c3c(-c4ccc(F)cc4)ncn3CCCO)nn12` [132′, 6-(4-(4-fluorophenyl)-1-(3-hydroxypropyl)-1H-imidazol-5-yl)imidazo[1,2-b]pyridazine-3-carboxamide]: the IC50 worked out at 4.7 nM.

Regarding `NC(=O)c1cnc2ccc(-c3c(-c4ccc(F)cc4)ncn3CCO)nn12` [133′, 6-(4-(4-fluorophenyl)-1-(2-hydroxyethyl)-1H-imidazol-5-yl)imidazo[1,2-b]pyridazine-3-carboxamide], the IC50 turned out to be 3.1 nM.

`Cn1cnc(-c2ccc(F)cc2)c1-c1ccc2ncc(C(N)=O)n2n1` [134′, 6-(4-(4-fluorophenyl)-1-methyl-1H-imidazol-5-yl)imidazo[1,2-b]pyridazine-3-carboxamide]: the IC50 was 3.9 nM.

For `CC(C)n1cnc(-c2ccc(F)cc2)c1-c1ccc2ncc(C(N)=O)n2n1` [135′, 6-(4-(4-fluorophenyl)-1-isopropyl-1H-imidazol-5-yl)imidazo[1,2-b]pyridazine-3-carboxamide], the IC50 was 0.7 nM.
